Residue numbers refer to the chain shown, from its start. pKi: −log10 of the molar value.
Assays:
Assay type in all cases: biochemical
[1] = biological target: T1, human soluble epoxide hydrolase (hsEH CTD) (Homo sapiens, UniProt P34913); experiment: X-ray crystal structure ([…] Å, non-covalent complex), STD-NMR; ESI-MS and LC-MS/MS of covalent adducts; Ki from PHOME fluorescence assay
T1 construct: gene EPHX2; C-terminal domain, T230-M555
T1 sequence (P34913 230-555): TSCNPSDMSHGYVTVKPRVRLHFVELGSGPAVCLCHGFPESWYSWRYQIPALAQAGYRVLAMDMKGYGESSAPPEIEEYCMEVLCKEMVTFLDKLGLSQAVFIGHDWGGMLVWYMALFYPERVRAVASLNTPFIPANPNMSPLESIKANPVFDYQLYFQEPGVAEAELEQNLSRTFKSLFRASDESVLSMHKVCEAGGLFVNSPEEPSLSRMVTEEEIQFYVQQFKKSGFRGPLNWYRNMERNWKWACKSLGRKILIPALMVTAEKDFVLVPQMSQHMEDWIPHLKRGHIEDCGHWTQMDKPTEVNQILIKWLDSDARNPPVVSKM

[2] = biological target: T2, human soluble epoxide hydrolase (hsEH CTD) (Homo sapiens, UniProt P34913, C522S); experiment: HPLC, UV and CD of purified covalent adduct; PHOME activity of adduct vs apoprotein
T2 construct: gene EPHX2; C-terminal domain, T230-M555
T2 sequence (P34913 230-555 C522S): T1 sequence (P34913 230-555) with C293S

[3] = biological target: T3, human soluble epoxide hydrolase (hsEH CTD) (Homo sapiens, UniProt P34913, C423S/C522S); experiment: PHOME spectrofluorimetric assay, Ki by Cheng-Prusoff
T3 construct: gene EPHX2; C-terminal domain, T230-M555
T3 sequence (P34913 230-555 C423S/C522S): T1 sequence (P34913 230-555) with C194S, C293S

[4] = biological target: T4, human soluble epoxide hydrolase (hsEH CTD) (Homo sapiens, UniProt P34913, C423S); experiment: HPLC, UV and CD of purified covalent adduct; PHOME activity of adduct vs apoprotein
T4 construct: gene EPHX2; C-terminal domain, T230-M555
T4 sequence (P34913 230-555 C423S): T1 sequence (P34913 230-555) with C194S

- pKi [1]: 4.89
- pKi [3]: 5.07
Compound: CCCCC/C=C/C=C1/C(=O)C=C[C@@H]1C/C=C/CCCC(=O)O [15d-PGJ2]
- HPLC, UV and CD of purified covalent adduct; PHOME activity of adduct vs apoprot [2]: with the single modification of C423S and C522S mutants inhibiting the enzyme to a lesser extent
- HPLC, UV and CD of purified covalent adduct; PHOME activity of adduct vs apoprot [4]: with the single modification of C423S and C522S mutants inhibiting the enzyme to a lesser extent

From article PMC6525171, “15-deoxy-Δ^12,14-Prostaglandin J2 inhibits human soluble epoxide hydrolase by a dual orthosteric and allosteric mechanism” (Communications Biology, 2019)
